Laboratory results as given in patent publication US9512141B2, “Pyrazine derivatives as CB2 receptor agonists” (Hoffmann-La Roche Inc., priority 2012, dated 2016).
pEC50: −log10 of the molar value. Read-outs that look alike come from different tables or passages of the source.

How the values were obtained:
[1] = biological target: human CB2 receptors (Homo sapiens (Human), UniProt P34972); assay: cAMP assay (functional), CHO cells expressing human CB2 receptors; type: cell-based
Description: (§1) CHO cells expressing human CB1 or CB2 receptors are seeded 17-24 hours prior to the experiment 50.000 cells per well in a black 96 well plate with flat clear bottom (Corning Costar #3904) in DMEM (Invitrogen No. 31331), 1×HT supplement, with 10% fetal calf serum and incubated at 5% CO2 and 37° C. in a humidified incubator. The growth medium was exchanged with Krebs Ringer Bicarbonate buffer with 1 mM IBMX and incubated at 30° C. for 30 min. Compounds were added to a final assay volume of 100 μl and incubated for 30 min at 30° C. Using the cAMP-Nano-TRF detection kit the assay (Roche Diagnostics) was stopped by the addition of 50 μl lysis reagent (Tris, NaCl, 1.5% Triton X100, 2.5% NP40, 10% NaN3) and 50 μl detection solutions (20 μM mAb Alexa700-cAMP 1:1, and 48 μM Ruthenium-2-AHA-cAMP) and shaken for 2 h at room temperature. The time-resolved energy transfer is measured by a TRF reader (Evotec Technologies GmbH), equipped with a ND:YAG laser as excitation source. The plate is measured twice with the excitation at 355 nm and at the emission with a delay of 100 ns and a gate of 100 ns, total exposure time 10 s at 730 (bandwidth 30 nm) or 645 nm (bandwidth 75 nm), respectively. The FRET signal is calculated as follows: FRET=T730-Alexa730-P (T645-B645) with P=Ru730-B730/Ru645-B645, where T730 is the test well measured at […], T645 is the test well measured at 645 nm, B730 and B645 are the buffer controls at 730 nm and 645 nm, respectively. cAMP content is determined from the function of a standard curve spanning from 10 μM to 0.13 nM cAMP.
(§2) EC50 values were determined using Activity Base analysis (ID Business Solution, Limited). The EC50 values for a wide range of cannabinoid agonists generated from this assay were in agreement with the values published in the scientific literature.

[2] = biological target: human CB1 receptors (Homo sapiens (Human), UniProt P21554); assay: cAMP assay (functional), CHO cells expressing human CB1 receptors; type: cell-based
Description: as §1, §2

[3] = functional cAMP assay, CHO cells expressing human CB2, read-out: human CB2 EC50
[4] = functional cAMP assay, CHO cells expressing human CB1, read-out: human CB1 EC50

human CB1 receptors, sequence (P21554 whole entry): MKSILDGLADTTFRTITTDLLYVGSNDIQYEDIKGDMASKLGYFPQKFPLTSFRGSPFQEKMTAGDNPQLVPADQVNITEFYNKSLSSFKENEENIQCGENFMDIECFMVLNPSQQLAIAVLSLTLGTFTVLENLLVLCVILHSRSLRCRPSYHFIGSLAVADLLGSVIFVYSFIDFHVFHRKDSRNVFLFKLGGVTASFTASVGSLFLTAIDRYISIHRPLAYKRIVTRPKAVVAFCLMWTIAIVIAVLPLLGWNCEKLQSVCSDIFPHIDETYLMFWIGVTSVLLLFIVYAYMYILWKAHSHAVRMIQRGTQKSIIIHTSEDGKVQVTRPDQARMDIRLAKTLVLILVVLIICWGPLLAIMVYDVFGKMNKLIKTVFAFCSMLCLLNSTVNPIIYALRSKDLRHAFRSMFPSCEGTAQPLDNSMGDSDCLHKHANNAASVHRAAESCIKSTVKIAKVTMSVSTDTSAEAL
human CB2 receptors, sequence (P34972 whole entry): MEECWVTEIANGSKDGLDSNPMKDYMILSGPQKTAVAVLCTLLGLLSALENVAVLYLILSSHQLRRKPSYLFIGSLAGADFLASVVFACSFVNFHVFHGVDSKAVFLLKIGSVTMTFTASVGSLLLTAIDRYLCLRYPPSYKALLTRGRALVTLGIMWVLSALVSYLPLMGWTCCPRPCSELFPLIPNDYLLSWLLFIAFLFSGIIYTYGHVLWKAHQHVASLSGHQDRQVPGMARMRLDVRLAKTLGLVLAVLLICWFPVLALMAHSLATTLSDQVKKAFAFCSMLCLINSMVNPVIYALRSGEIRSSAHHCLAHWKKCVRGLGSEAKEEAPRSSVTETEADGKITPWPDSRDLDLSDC

| SMILES | pEC50 [1] | pEC50 [2] | pEC50 [1, 3] | pEC50 [2, 4] |
| --- | --- | --- | --- | --- |
| NC(=O)C1CC2(CC2)CN1C(=O)c1cnc(N2CC(F)(F)C2)c(OCC2CC2)n1 (racemic) [Example 40, (±)-5-[6-(Cyclopropylmethoxy)-5-(3,3-difluoroazetidin-1-yl)pyrazine-2-carbonyl]-5-azaspiro[2.4]heptane-6-carboxamide] | 7.41 | < 5.00 | – | – |
| NC(=O)C1CCCCN1C(=O)c1cnc(N2CC(F)(F)C2)c(OCC2CC2)n1 (single isomer, unassigned; (-)) [Example 36, (−)-1-[6-Cyclopropylmethoxy-5-(3,3-difluoro-azetidin-1-yl)-pyrazine-2-carbonyl]-piperidine-2-carboxylic acid amide] | – | – | 6.66 | < 5.00 |
| NC(=O)C1CSCCN1C(=O)c1cnc(N2CC(F)(F)C2)c(OCC2CC2)n1 (single isomer, unassigned; (-)) [Example 37, (−)-4-[6-Cyclopropylmethoxy-5-(3,3-difluoro-azetidin-1-yl)-pyrazine-2-carbonyl]-thiomorpholine-3-carboxylic acid amide] | – | – | 6.51 | < 5.00 |
| CC1(C)CC(C(N)=O)N(C(=O)c2cnc(N3CC(F)(F)C3)c(OCC3CC3)n2)C1 (single isomer, unassigned; (-)) [Example 38, (−)-1-[6-Cyclopropylmethoxy-5-(3,3-difluoro-azetidin-1-yl)-pyrazine-2-carbonyl]-4,4-dimethyl-pyrrolidine-2-carboxylic acid amide] | – | – | 8.85 | < 5.00 |
| CC1(C)CC(C(N)=O)N(C(=O)c2cnc(C3CC3)c(OCC3CC3)n2)C1 (single isomer, unassigned; (-)) [Example 39, (−)-1-(5-Cyclopropyl-6-cyclopropylmethoxy-pyrazine-2-carbonyl)-4,4-dimethyl-pyrrolidine-2-carboxylic acid amide] | – | – | 7.99 | < 5.00 |
| C[C@@H]1CCCN1C(=O)c1cnc(C2CC2)c(OCC2CC2)n1 [Example 1, (5-Cyclopropyl-6-cyclopropylmethoxy-pyrazin-2-yl)-((R)-2-methyl-pyrrolidin-1-yl)-methanone] | – | – | 7.24 | < 5.00 |
| C[C@@H]1CCCN1C(=O)c1cnc(N2CC(F)(F)C2)c(OCC2CC2)n1 [Example 2, [6-Cyclopropylmethoxy-5-(3,3-difluoro-azetidin-1-yl)-pyrazin-2-yl]-((R)-2-methyl-pyrrolidin-1-yl)-methanone] | – | – | 8.31 | < 5.00 |
| COCCN(C(=O)c1cnc(N2CC(F)(F)C2)c(OCC2CC2)n1)C(C)(C)C [Example 3, 6-Cyclopropylmethoxy-5-(3,3-difluoro-azetidin-1-yl)-pyrazine-2-carboxylic acid tert-butyl-(2-methoxy-ethyl)-amide] | – | – | 8.40 | < 5.00 |
| CC1(C)COCCN1C(=O)c1cnc(N2CC(F)(F)C2)c(OCC2CC2)n1 [Example 4, [6-Cyclopropylmethoxy-5-(3,3-difluoro-azetidin-1-yl)-pyrazin-2-yl]-(3,3-dimethyl-morpholin-4-yl)-methanone] | – | – | 8.37 | < 5.00 |
| C[C@H]1CCCN1C(=O)c1cnc(N2CC(F)(F)C2)c(OCC2CC2)n1 [Example 5, [6-Cyclopropylmethoxy-5-(3,3-difluoro-azetidin-1-yl)-pyrazin-2-yl]-((S)-2-methyl-pyrrolidin-1-yl)-methanone] | – | – | 7.09 | < 5.00 |
| O=C(c1cnc(N2CC(F)(F)C2)c(OCC2CC2)n1)N1CC2CC1CO2 (stereo not shown) [Example 6, [6-Cyclopropylmethoxy-5-(3,3-difluoro-azetidin-1-yl)-pyrazin-2-yl]-2-oxa-5-aza-bicyclo[2.2.1]hept-5-yl-methanone] | – | – | 6.59 | < 5.00 |
| CN(C(=O)c1cnc(N2CC(F)(F)C2)c(OCC2CC2)n1)C(C)(C)C [Example 7, 6-Cyclopropylmethoxy-5-(3,3-difluoro-azetidin-1-yl)-pyrazine-2-carboxylic acid tert-butyl-methyl-amide] | – | – | 8.49 | < 5.00 |
| O=C(c1cnc(N2CC(F)(F)C2)c(OCC2CC2)n1)N1CCC(F)(F)C1 [Example 8, [6-Cyclopropylmethoxy-5-(3,3-difluoro-azetidin-1-yl)-pyrazin-2-yl]-(3,3-difluoro-pyrrolidin-1-yl)-methanone] | – | – | 7.53 | < 5.00 |
| O=C(c1cnc(N2CC(F)(F)C2)c(OCC2CC2)n1)N1CCOCC12CC2 [Example 10, [6-Cyclopropylmethoxy-5-(3,3-difluoro-azetidin-1-yl)-pyrazin-2-yl]-(7-oxa-4-aza-spiro[2.5]oct-4-yl)-methanone] | – | – | 7.82 | < 5.00 |
| CCOC(=O)CN(C(=O)c1cnc(N2CC(F)(F)C2)c(OCC2CC2)n1)C(C)(C)C [Example 11, {tert-Butyl-[6-cyclopropylmethoxy-5-(3,3-difluoro-azetidin-1-yl)-pyrazine-2-carbonyl]-amino}-acetic acid ethyl ester] | – | – | 8.17 | < 5.00 |
| COCC(C)(C)N(C)C(=O)c1cnc(N2CC(F)(F)C2)c(OCC2CC2)n1 [Example 12, 6-Cyclopropylmethoxy-5-(3,3-difluoro-azetidin-1-yl)-pyrazine-2-carboxylic acid (2-methoxy-1,1-dimethyl-ethyl)-methyl-amide] | – | – | 8.04 | < 5.00 |
| CC1(C)CN(C(=O)c2cnc(N3CC(F)(F)C3)c(OCC3CC3)n2)CCO1 [Example 13, [6-Cyclopropylmethoxy-5-(3,3-difluoro-azetidin-1-yl)-pyrazin-2-yl]-(2,2-dimethyl-morpholin-4-yl)-methanone] | – | – | 7.16 | < 5.00 |
| COCC(C)(C)N(C)C(=O)c1cnc(C2CC2)c(OCC2CC2)n1 [Example 14, 5-Cyclopropyl-6-cyclopropylmethoxy-pyrazine-2-carboxylic acid (2-methoxy-1,1-dimethyl-ethyl)-methyl-amide] | – | – | 7.84 | < 5.00 |
| COC(=O)[C@@H]1CCCN1C(=O)c1cnc(C2CC2)c(OCC2CC2)n1 [Example 16, (S)-1-(5-Cyclopropyl-6-cyclopropylmethoxy-pyrazine-2-carbonyl)-pyrrolidine-2-carboxylic acid methyl ester] | – | – | 6.72 | < 5.00 |
| O=C(c1cnc(C2CC2)c(OCC2CC2)n1)N1CCOCC12CC2 [Example 17, (5-Cyclopropyl-6-cyclopropylmethoxy-pyrazin-2-yl)-(7-oxa-4-aza-spiro[2.5]oct-4-yl)-methanone] | – | – | 6.85 | < 5.00 |
| NC(=O)[C@@H]1CC(F)(F)CN1C(=O)c1cnc(N2CC(F)(F)C2)c(OCC2CC2)n1 [Example 19, (S)-1-[6-Cyclopropylmethoxy-5-(3,3-difluoro-azetidin-1-yl)-pyrazine-2-carbonyl]-4,4-difluoro-pyrrolidine-2-carboxylic acid amide] | – | – | 8.24 | < 5.00 |
| O=C(c1cnc(N2CC(F)(F)C2)c(OCC2CC2)n1)N1CCN(CCO)CC1 [Example 20, [6-Cyclopropylmethoxy-5-(3,3-difluoro-azetidin-1-yl)-pyrazin-2-yl]-[4-(2-hydroxy-ethyl)-piperazin-1-yl]-methanone] | – | – | 6.50 | < 5.00 |
| CC1(C)CCCN1C(=O)c1cnc(N2CC(F)(F)C2)c(OCC2CC2)n1 [Example 21, [6-Cyclopropylmethoxy-5-(3,3-difluoro-azetidin-1-yl)-pyrazin-2-yl]-(2,2-dimethyl-pyrrolidin-1-yl)-methanone] | – | – | 8.37 | < 5.00 |
